For the test, the target named is T1, human neutrophil elastase (HNE) (Homo sapiens, UniProt P08246).
T1 sequence (P08246 30-267): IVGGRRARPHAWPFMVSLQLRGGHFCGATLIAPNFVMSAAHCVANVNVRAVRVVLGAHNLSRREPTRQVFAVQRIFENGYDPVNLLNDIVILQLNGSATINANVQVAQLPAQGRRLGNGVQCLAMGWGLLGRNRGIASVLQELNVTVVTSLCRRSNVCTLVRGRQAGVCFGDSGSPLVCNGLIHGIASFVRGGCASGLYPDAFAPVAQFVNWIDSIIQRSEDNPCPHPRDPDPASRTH
The test can be described thus: HNE Ki of CE compounds, tested as described in WO 96/16080. To be noted: read-out: HNE Ki. It is filed as biochemical.

Regarding “2-Oxo-5-methyl-1,4-(1-thiophenodiazepine)-N-[1-(2-[5-(3-methylbenzyl)-1,3,4-oxadiazolyl]carbonyl)-2-(S)-methylpropyl]acetamide [CE2244]”, the Ki was 78.5 nM. Next, `CC(C)[C@H](NC(=O)CN1C(=O)CN(Cc2ccccc2)C(=O)[C@H]1Cc1ccccc1)C(=O)c1noc(Cc2cccc(C(F)(F)F)c2)n1` [CE2146, 4-[1-Benzyl-3-(R)-benzylpiperazine-2,5,-dione]-N-[1-(3-(5-(3-trifluoromethylbenzyl)-1,2,4-oxadiazolyl]carbonyl)-2-(S)-methylpropyl]acetamide]: 67 nM; `Cc1cccc(Cc2nnc(C(=O)[C@@H](NC(=O)Cn3c(=O)[nH]n(Cc4ccccc4)c3=O)C(C)C)o2)c1` [CE2176, 1-Benzyl-1,2,4-triazolidine-3,5-dione-N-[1-(2-[5-(3-methylbenzyl)-1,3,4-oxadiazolyl]carbonyl)-2-(S)-methylpropyl]acetamide]: 52 nM. Next, `Cc1cccc(Cc2nnc(C(=O)[C@@H](NC(=O)[C@@H]3Cc4ccccc4N3C(=O)[C@@H](NC(=O)OCc3ccccc3)C(C)C)C(C)C)o2)c1` [CE2145, (Benzyloxycarbonyl)-L-valyl-2-L-(2,3-dihydro-1H-indole)-N-[1-(2-[5-(3-methylbenzyl)-1,3,4-oxadiazolyl]carbonyl)-2-(S)-methylpropyl]amide]: 0.038 nM; `Cc1cccc(Cc2nnc(C(=O)C(NC(=O)CN3C(=O)CCSC3c3ccccc3)C(C)C)o2)c1` [CE2118, 2-[2-(R,S)-Phenyl-4-oxometathiazan-3-yl]-N-[1-(2-[5-(3-methylbenzyl)-1,3,4-oxadiazolyl]carbonyl)-2-(S)-methylpropyl]acetamide]: 13.2 nM; `Cc1cccc(Cc2nnc(C(=O)[C@@H](NC(=O)CN3C(=O)CNC(=O)C3Cc3ccncc3)C(C)C)o2)c1` (stereo partly drawn) [CE2159, 2-(R,S)-[6-(Methylene-4-pyridyl)piperazine-2,5-dione]-N-[1-(2-[5-(3-methylbenzyl)-1,3,4-oxadiazolyl]carbonyl)-2-(S)-methylpropyl]acetamide]: 52 nM. The figure for `Cc1cccc(Cc2nnc(C(=O)[C@@H](NC(=O)Cn3c(=O)c(NC(=O)OCc4ccccc4)cc4ccccc43)C(C)C)o2)c1` [CE2108, 3-[(Benzyloxycarbonyl)amino]-quinoline-2-one-N-[1-(2-[5-(3-methylbenzyl)-1,3,4-oxadiazolyl]carbonyl)-2-(S)-methylpropyl]acetamide] is 10.5 nM. For `CC(C)[C@H](NC(=O)[C@@H]1CCCN1C(=O)[C@@H](NC(=O)OCc1ccccc1)C(C)C)C(=O)c1noc(Cc2cc(C(F)(F)F)cc(C(F)(F)F)c2)n1` [CE2054, (Benzyloxycarbonyl)-L-valyl-N-[1-(3-[5-(3,5-ditrifluoromethylbenzyl)-1,2,4-oxadiazolyl]carbonyl)-2-(S)-methylpropyl]-L-prolinamide], the Ki was 0.29 nM. The figure for `Cc1cccc(Cc2nnc(C(=O)[C@@H](NC(=O)CN3CC(=O)N(C(=O)c4ccccc4)CC3=O)C(C)C)o2)c1` [CE2138, (1-Benzoyl-3,6-piperazinedione)-N-[1-(2-[5-(3-S methylbenzyl)-1,3,4-oxadiazolyl]carbonyl)-2-(S)-methylpropyl]acetamide] is 294 nM; for `CC(C)C(NC(=O)CN1C(=O)C[S+]([O-])C1Cc1ccccc1)C(=O)c1noc(Cc2cccc(C(F)(F)F)c2)n1` [CE2137, 2-[2-(R,S)-Benzyl-4-oxothiazolidin-3-yloxide]-N-[1-(3-[5-(3-trifluoromethylbenzyl)-1,2,4-oxadiazolyl]carbonyl)-2-(R,S)-methylpropyl]acetamide] it is 558 nM; for `CC(C)[C@H](NC(=O)Cn1c(-c2ccc(F)cc2)ccc(N)c1=O)C(=O)c1nnc(Cc2ccc3c(c2)OCO3)o1` [CE2261] it is 0.36 nM. Take `CC(C)[C@H](NC(=O)Cn1c(-c2ccc(F)cc2)ncc(N)c1=O)C(=O)c1noc(Cc2cccc(C(F)(F)F)c2)n1` [CE2090]: the Ki is 2.7 nM.

`Cc1cccc(Cc2nnc(C(=O)[C@@H](NC(=O)CN3C(=O)N[C@H](Cc4ccccc4)C3=O)C(C)C)o2)c1` [CE2142, 5-(R)-Benzyl-2,4-imidazolidinedione-N-[1-(2-[5-(3-methylbenzyl)-1,3,4-oxadiazolyl]carbonyl)-2-(S)-methylpropyl]acetamide]: the Ki amounted to 8.7 nM. The figure for `CC(C)[C@H](NC(=O)[C@@H]1CCCN1C(=O)[C@@H](NC(=O)OCc1ccccc1)C(C)C)C(=O)c1noc(Cc2cccc(Oc3ccccc3)c2)n1` [CE2066, (Benzyloxycarbonyl)-L-valyl-N-[1-(3-[5-(3-phenoxybenzyl)-1,2,4-oxadiazolyl]carbonyl)-2-(S)-methylpropyl]-L-prolinamide] is 0.98 nM; for `COc1cc(Cc2nc(C(=O)[C@@H](NC(=O)[C@@H]3CCCN3C(=O)[C@@H](NC(=O)OCc3ccccc3)C(C)C)C(C)C)no2)cc(OC)c1` [CE2053, (Benzyloxycarbonyl)-L-valyl-N-[1-(3-[5-(3,5-dimethoxybenzyl)-1,2,4-oxadiazolyl]carbonyl)-2-(S)-methylpropyl]-L-prolinamide] it is 0.41 nM. For the compound `COC(=O)c1c(F)c2ccccc2n(CC(=O)N[C@H](C(=O)c2nnc(Cc3cccc(C)c3)o2)C(C)C)c1=O` [CE2117, 3-Carbomethoxy-4-fluoro-quinoline-2-one-N-[1-(2-[5-(3-methylbenzyl)-1,3,4-oxadiazolyl]carbonyl)-2-(S)-methylpropyl]acetamide], the Ki is 586 nM. Next, `CC(C)[C@H](NC(=O)[C@@H]1CCCN1C(=O)[C@@H](NC(=O)OCc1ccccc1)C(C)C)C(=O)c1noc(C(c2ccccc2)c2ccccc2)n1` [CE2057]: 0.375 nM; `CC(C)[C@H](NC(=O)CN1C(=O)CN(Cc2ccccc2)C(=O)[C@@H]1Cc1ccccc1)C(=O)c1noc(CCN(C)C)n1` [CE2133, 4-[1-Benzyl-3-(S)-benzylpiperazine-2,5,-dione]-N-[1-(3-[5-(2-dimethylaminoethyl)-1,2,4-oxadiazolyl]carbonyl)-2-(S)-methylpropyl]acetamide]: 33000 nM; `CC(C)[C@H](NC(=O)[C@@H]1CCCN1C(=O)[C@@H](NC(=O)OCc1ccccc1)C(C)C)C(=O)c1noc(Cc2cccc3ccccc23)n1` [CE2077, (Benzyloxycarbonyl)-L-valyl-N-[1-(3-[5-(1-napthylmethylene)-1,2,4-oxadiazolyl]carbonyl)-2-(S)-methylpropyl]-L-prolinamide]: 0.15 nM. The figure for `CC(=O)N1CC(=O)N(CC(=O)N[C@H](C(=O)c2nnc(Cc3cccc(C)c3)o2)C(C)C)C(=Cc2ccncc2)C1=O` [CE2114, 1-Acetyl-3-[(4-pyridyl)methylene] piperazine-2,5-dione-N-[1-(2-[5-(3-methylbenzyl)-1,3,4-oxadiazolyl]carbonyl)-2-(S)-methylpropyl]acetamide] is 25 nM. Next, `Cc1cccc(Cc2nnc(C(=O)C(NC(=O)CN3C(=O)CN(C)C(=O)C3c3ccccc3)C(C)C)o2)c1` [CE2106, 4-[1-Methyl-3-(R,S)-phenylpiperazine-2,5,-dione]-N-[1-(2-[5-(3-methylbenzyl)-1,3,4-oxadiazolyl]carbonyl)-2-(S)-methylpropyl]acetamide]: 41 nM. `Cc1cccc(Cc2nnc(C(=O)C(NC(=O)CN3C(=O)CNCC3Cc3ccccc3)C(C)C)o2)c1` [CE2196, (6-(R)-Benzylpiperazin-2-one)-N-[1-(2-[5-(3-methylbenzyl)-1,3,4-oxadiazolyl]carbonyl)-2-(R,S)-methylpropyl]acetamide]: the Ki came out at 96 nM. The figure for `CC(C)[C@H](NC(=O)[C@@H]1CCCN1C(=O)[C@@H](NC(=O)OCc1ccccc1)C(C)C)C(=O)c1noc(CC2CCCCC2)n1` [CE2069] is 4.4 nM; for `Cc1cccc(Cc2nnc(C(=O)[C@@H](NC(=O)[C@@H]3CCCN3C(=O)[C@@H](NS(=O)(=O)c3ccccc3)C(C)C)C(C)C)o2)c1` [CE2168, Phenylsulfonyl-L-valyl-N-[1-(2-[5-(3-methylbenzyl)-1,3,4-oxadiazolyl]carbonyl)-2-(S)-methylpropyl]-L-prolinamide] it is 0.15 nM; for `CC(C)[C@H](NC(=O)[C@@H]1CCCN1C(=O)[C@@H](NC(=O)OCc1ccccc1)C(C)C)C(=O)c1noc(Cc2ccc(N(C)C)cc2)n1` [CE2115, (Benzyloxycarbonyl)-L-valyl-N-[1-(3-[5-(4-dimethylaminobenzyl)-1,2,4-oxadiazolyl]carbonyl)-2-(S)-methylpropyl]-L-prolinamide] it is 1 nM. The figure for `CC(=O)N1CC(=O)N(CC(=O)N[C@H](C(=O)c2nnc(Cc3cccc(C)c3)o2)C(C)C)C(=Cc2ccc(F)cc2)C1=O` [CE2105, 1-Acetyl-3-(4-fluorobenzylidene) piperazine-2,5-dione-N-[1-(2-[5-(3-methylbenzyl)-1,3,4-oxadiazolyl]carbonyl)-2-(S)-methylpropyl]acetamide] is 0.72 nM. The figure for `Cc1cccc(Cc2nnc(C(=O)[C@@H](NC(=O)[C@@H]3CCCN3C(=O)[C@@H](NC(=O)OCc3ccncc3)C(C)C)C(C)C)o2)c1` [CE2186, 4-Pyridylmethyleneoxycarbonyl -L-valyl-N-[1-(2-[5-(3-methylbenzyl)-1,3,4-oxadiazolyl]carbonyl)-2-(S)-methylpropyl]-L-prolinamide] is 0.037 nM. For the compound `CC(C)[C@H](NC(=O)Cn1c(-c2ccc(F)cc2)ncc(NC(=O)OCc2ccccc2)c1=O)C(=O)c1noc(Cc2cccc(C(F)(F)F)c2)n1` [CE2089, 2-[5-[(Benzyloxycarbonyl]amino]-6-oxo-2-(4-fluorophenyl)-1,6-dihydro-1-pyrimidinyl]-N-[1-(3-[5-(3-trifluoromethylbenzyl)-1,2,4-oxadiazolyl]carbonyl)7(S)-2-methylpropyl]acetamide], the Ki came out at 1.5 nM. Next, `Cc1cccc(Cc2nc(C(=O)C(NC(=O)CN3C(=O)C(N)N=C(c4ccccc4)c4ccccc43)C(C)C)no2)c1` [CE2221, (R,S)-3-Amino-2-oxo-5-phenyl-1,4-benzodiazepine-N-[1-(3-[5-(3-methylbenzyl)-1,2,4-oxadiazolyl]carbonyl)-2-(R,S)-methylpropyl]acetamide]: 34 nM.

As a reminder, the Ki is the dissociation constant of the complex between target and ligand, obtained from inhibition or displacement.

(Values after patent publication US6656911B2, “Serine protease inhibitors” (Cortech, Inc., priority 1994, dated 2003).)
